In brackets after ≈: the same amount, converted by molar mass. Activity calls are given as the source filed them. No cut-off for these calls is given here.
Experiments:
[1] = test system: Micrococcus luteus; experiment: Antimicrobial activity against Micrococcus luteus Presque Isle 456 after 24 hrs by broth microdilution susceptibility assay; assay type: functional; details: Presque Isle 456, 24 h
[2] = test system: Streptococcus pneumoniae; experiment: Antimicrobial activity against Streptococcus pneumoniae ATCC 6303 after 24 hrs by broth microdilution susceptibility assay; assay type: functional; details: ATCC 6303, 24 h
[3] = test system: SF-268; experiment: Cytotoxicity against human SF268 cells after 48 hrs by sulforhodamine B assay; assay type: functional; details: SF-268, 48 h
[4] = test system: Staphylococcus aureus; experiment: Antimicrobial activity against Staphylococcus aureus ATCC 29213 after 24 hrs by broth microdilution susceptibility assay; assay type: functional; details: ATCC 29213, 24 h
[5] = test system: OVCAR-3; experiment: Cytotoxicity against human OVCAR-3 cells after 48 hrs by sulforhodamine B assay; assay type: functional
[6] = test system: P388; experiment: Cytotoxicity against mouse P388 cells after 48 hrs by sulforhodamine B assay; assay type: functional; details: P388, 48 h, read-out: ED50 (the source's name)
[7] = test system: Neisseria gonorrhoeae; experiment: Antimicrobial activity against Neisseria gonorrhoeae ATCC 49226 by broth microdilution susceptibility assay; assay type: functional
[8] = test system: DU-145; experiment: Cytotoxicity against human DU145 cells after 48 hrs by sulforhodamine B assay; assay type: functional; details: DU-145, 48 h
[9] = test system: Streptococcus pneumoniae; experiment: Antimicrobial activity against Streptococcus pneumoniae ATCC 6303 by broth microdilution susceptibility assay; assay type: functional
[10] = test system: Staphylococcus aureus; experiment: Antimicrobial activity against Staphylococcus aureus ATCC 29213 assessed clear zone in inhibition per disk by CLSI disk diffusion susceptibility assay; assay type: functional
[11] = test system: Cryptococcus neoformans; experiment: Antifungal activity against Cryptococcus neoformans ATCC 90112 after 48 hrs by broth microdilution susceptibility assay; assay type: functional; details: ATCC 90112, 48 h
[12] = test system: Stenotrophomonas maltophilia; experiment: Antimicrobial activity against Stenotrophomonas maltophilia ATCC 13637 after 24 hrs by broth microdilution susceptibility assay; assay type: functional; details: ATCC 13637, 24 h
[13] = test system: Cryptococcus neoformans; experiment: Antimicrobial activity against Cryptococcus neoformans ATCC 90112 assessed clear zone in inhibition per disk by CLSI disk diffusion susceptibility assay; assay type: functional
[14] = test system: MCF7; experiment: Cytotoxicity against human MCF7 cells after 48 hrs by sulforhodamine B assay; assay type: functional; details: MCF7, 48 h
[15] = test system: Escherichia coli; experiment: Antimicrobial activity against Escherichia coli ATCC 25922 after 24 hrs by broth microdilution susceptibility assay; assay type: functional; details: ATCC 25922, 24 h
[16] = test system: KM-20L2; experiment: Cytotoxicity against human KM20L2 cells after 48 hrs by sulforhodamine B assay; assay type: functional; details: KM-20L2, 48 h
[17] = test system: NCI-H460; experiment: Cytotoxicity against human NCI-H460 cells after 48 hrs by sulforhodamine B assay; assay type: functional; details: NCI-H460, 48 h
[18] = test system: Enterococcus faecalis; experiment: Antimicrobial activity against Enterococcus faecalis ATCC 29212 after 24 hrs by broth microdilution susceptibility assay; assay type: functional; details: ATCC 29212, 24 h
[19] = test system: Staphylococcus aureus; experiment: Antimicrobial activity against Staphylococcus aureus ATCC 29213 by broth microdilution susceptibility assay; assay type: functional
[20] = test system: Micrococcus luteus; experiment: Antimicrobial activity against Micrococcus luteus Presque Isle 456 assessed clear zone in inhibition per disk by CLSI disk diffusion susceptibility assay; assay type: functional
[21] = test system: Streptococcus pneumoniae; experiment: Antimicrobial activity against Streptococcus pneumoniae ATCC 6303 assessed clear zone in inhibition per disk by CLSI disk diffusion susceptibility assay; assay type: functional
[22] = test system: Stenotrophomonas maltophilia; experiment: Antimicrobial activity against Stenotrophomonas maltophilia ATCC 13637 assessed clear zone in inhibition per disk by CLSI disk diffusion susceptibility assay; assay type: functional
[23] = test system: Candida albicans; experiment: Antifungal activity against Candida albicans ATCC 90028 after 48 hrs by broth microdilution susceptibility assay; assay type: functional; details: ATCC 90028, 48 h
[24] = test system: Neisseria gonorrhoeae; experiment: Antimicrobial activity against Neisseria gonorrhoeae ATCC 49226 after 24 hrs by broth microdilution susceptibility assay; assay type: functional; details: ATCC 49226, 24 h
[25] = test system: A498; experiment: Cytotoxicity against human A498 cells after 48 hrs by sulforhodamine B assay; assay type: functional
[26] = test system: Enterobacter cloacae; experiment: Antimicrobial activity against Enterobacter cloacae ATCC 13047 assessed clear zone in inhibition per disk by CLSI disk diffusion susceptibility assay; assay type: functional
[27] = test system: SF-295; experiment: Cytotoxicity against human SF295 cells after 48 hrs by sulforhodamine B assay; assay type: functional
[28] = test system: Enterobacter cloacae; experiment: Antimicrobial activity against Enterobacter cloacae ATCC 13047 by broth microdilution susceptibility assay; assay type: functional
[29] = Inhibition of tubulin polymerization
[30] = test system: SK-MEL-5; experiment: Cytotoxicity against human SK-MEL-5 cells after 48 hrs by sulforhodamine B assay; assay type: functional
[31] = test system: Escherichia coli; experiment: Antimicrobial activity against Escherichia coli ATCC 25922 by broth microdilution susceptibility assay; assay type: functional
[32] = test system: Stenotrophomonas maltophilia; experiment: Antimicrobial activity against Stenotrophomonas maltophilia ATCC 13637 by broth microdilution susceptibility assay; assay type: functional
[33] = test system: Candida albicans; experiment: Antifungal activity against Candida albicans ATCC 90028 after 24 hrs by broth microdilution susceptibility assay; assay type: functional; details: ATCC 90028, 24 h
[34] = test system: Enterococcus faecalis; experiment: Antimicrobial activity against Enterococcus faecalis ATCC 29212 by broth microdilution susceptibility assay; assay type: functional
[35] = test system: Candida albicans; experiment: Antimicrobial activity against Candida albicans ATCC 90028 assessed clear zone in inhibition per disk by CLSI disk diffusion susceptibility assay; assay type: functional
[36] = test system: Enterococcus faecalis; experiment: Antimicrobial activity against Enterococcus faecalis ATCC 29212 assessed clear zone in inhibition per disk by CLSI disk diffusion susceptibility assay; assay type: functional
[37] = test system: Micrococcus luteus; experiment: Antimicrobial activity against Micrococcus luteus Presque Isle 456 by broth microdilution susceptibility assay; assay type: functional
[38] = test system: Escherichia coli; experiment: Antimicrobial activity against Escherichia coli ATCC 25922 assessed clear zone in inhibition per disk by CLSI disk diffusion susceptibility assay; assay type: functional
[39] = test system: Cryptococcus neoformans; experiment: Antifungal activity against Cryptococcus neoformans ATCC 90112 after 72 hrs by broth microdilution susceptibility assay; assay type: functional; details: ATCC 90112, 72 h
[40] = test system: BXPC-3; experiment: Cytotoxicity against human BxPC3 cells after 48 hrs by sulforhodamine B assay; assay type: functional; details: BXPC-3, 48 h
[41] = test system: Neisseria gonorrhoeae; experiment: Antimicrobial activity against Neisseria gonorrhoeae ATCC 49226 assessed clear zone of inhibition measured per disk by CLSI disk diffusion susceptibility assay; assay type: functional

With `O=[N+]([O-])/C=C/c1ccc2c(c1)OCO2` the MBC [1] was greater than 64 µg/mL, the MBC [2] was 32 µg/mL (≈ 166 µM) and the GI50 [3] was 1.9 µg/mL (≈ 9.84 µM). For the same molecule, the MBC [4] was greater than 64 µg/mL, the GI50 [5] was “inactive” and the EC50 [6] was 2 µg/mL (≈ 10.4 µM). It also gave an MIC [7] of 1 µg/mL (≈ 5.18 µM), a GI50 [8] of 1.8 µg/mL (≈ 9.32 µM) and an MIC [9] of 16 µg/mL (≈ 82.8 µM). It also gave an MIC [10] of 6.25 µg, an MFC [11] of 16 µg/mL (≈ 82.8 µM) and an MBC [12] greater than 64 µg/mL. For the same molecule, the MIC [13] was 0.78 µg, the GI50 [14] was 0.58 µg/mL (≈ 3 µM) and the MBC [15] was greater than 64 µg/mL. For the same molecule, the GI50 [16] was 1.8 µg/mL (≈ 9.32 µM), the GI50 [17] was 2 µg/mL (≈ 10.4 µM) and the MBC [18] was greater than 64 µg/mL. It also gave an MIC [19] of 32 µg/mL (≈ 166 µM), an MIC [20] of 50 µg and an MIC [21] of 0.78 µg. For the same molecule, the MIC [22] was 6.25 µg, the MIC [23] was 8 µg/mL (≈ 41.4 µM) and the MBC [24] was 2 µg/mL (≈ 10.4 µM). For the same molecule, the GI50 [25] was “inactive”, the MIC [26] was 12.5 µg and the GI50 [27] was “inactive”. For the same molecule, the MIC [28] was greater than 64 µg/mL, the IC50 [29] was 5.3 µM and the GI50 [30] was “inactive”. It also gave an MIC [31] of 64 µg/mL (≈ 331 µM), an MIC [32] of 64 µg/mL (≈ 331 µM) and an MFC [33] of 16 µg/mL (≈ 82.8 µM). The MIC [34] was 64 µg/mL (≈ 331 µM), the MIC [35] was 1.56 µg and the MIC [36] was 6.25 µg. It also gave an MIC [37] of 64 µg/mL (≈ 331 µM), an MIC [38] of 6.25 µg and an MIC [39] of 8 µg/mL (≈ 41.4 µM). For the same molecule, the GI50 [40] was 1.7 µg/mL (≈ 8.8 µM) and the MIC [41] was less than 0.78 µg.

For `COc1cc(/C=C/[N+](=O)[O-])ccc1OCc1ccccc1`, the MBC [2] was 32 µg/mL (≈ 112 µM), the GI50 [3] was 0.94 µg/mL (≈ 3.29 µM) and the MBC [4] was greater than 16 µg/mL. The GI50 [5] was “inactive”, the EC50 [6] was 16.6 µg/mL (≈ 58.2 µM) and the MIC [7] was 1 µg/mL (≈ 3.51 µM). For the same molecule, the GI50 [8] was 1.3 µg/mL (≈ 4.56 µM), the MIC [9] was 16 µg/mL (≈ 56.1 µM) and the MIC [10] was 6.25 µg. The MFC [11] was 64 µg/mL (≈ 224 µM), the MIC [13] was less than 0.78 µg and the GI50 [14] was 0.96 µg/mL (≈ 3.36 µM). The GI50 [16] was 1.5 µg/mL (≈ 5.26 µM), the GI50 [17] was 1.3 µg/mL (≈ 4.56 µM) and the MIC [19] was 4 µg/mL (≈ 14 µM). The MIC [20] was greater than 100 µg, the MIC [21] was 12.5 µg and the MIC [22] was greater than 100 µg. The MIC [23] was greater than 64 µg/mL, the MBC [24] was 2 µg/mL (≈ 7.01 µM) and the GI50 [25] was “inactive”. For the same molecule, the MIC [26] was greater than 100 µg, the GI50 [27] was “inactive” and the MIC [28] was greater than 64 µg/mL. The IC50 [29] was 2.5 µM, the GI50 [30] was “inactive” and the MIC [31] was greater than 64 µg/mL. For the same molecule, the MIC [32] was greater than 64 µg/mL, the MIC [34] was greater than 64 µg/mL and the MIC [35] was greater than 100 µg. The MIC [36] was greater than 100 µg, the MIC [37] was 4 µg/mL (≈ 14 µM) and the MIC [38] was greater than 100 µg. For the same molecule, the MIC [39] was 32 µg/mL (≈ 112 µM), the GI50 [40] was 1.7 µg/mL (≈ 5.96 µM) and the MIC [41] was less than 0.78 µg.

Molecule `O=[N+]([O-])/C=C/c1c[nH]c2ccccc12` has an MBC [1] greater than 64 µg/mL, an MBC [2] greater than 64 µg/mL and a GI50 [3] of 1.9 µg/mL (≈ 10.1 µM). The MBC [4] was greater than 64 µg/mL, the GI50 [5] was “inactive” and the EC50 [6] was 3.7 µg/mL (≈ 19.7 µM). For the same molecule, the MIC [7] was 8 µg/mL (≈ 42.5 µM), the GI50 [8] was 1.3 µg/mL (≈ 6.91 µM) and the MIC [9] was 64 µg/mL (≈ 340 µM). For the same molecule, the MIC [10] was greater than 100 µg, the MFC [11] was 32 µg/mL (≈ 170 µM) and the MBC [12] was greater than 64 µg/mL. The MIC [13] was 6.25 µg, the GI50 [14] was 0.4 µg/mL (≈ 2.13 µM) and the GI50 [16] was 1.4 µg/mL (≈ 7.44 µM). The GI50 [17] was 1.6 µg/mL (≈ 8.5 µM), the MBC [18] was greater than 64 µg/mL and the MIC [19] was 64 µg/mL (≈ 340 µM). For the same molecule, the MIC [20] was 50 µg, the MIC [21] was 12.5 µg and the MIC [22] was 25 µg. For the same molecule, the MIC [23] was 32 µg/mL (≈ 170 µM), the MBC [24] was 8 µg/mL (≈ 42.5 µM) and the GI50 [25] was “inactive”. For the same molecule, the MIC [26] was greater than 100 µg, the GI50 [27] was “inactive” and the MIC [28] was greater than 64 µg/mL. For the same molecule, the IC50 [29] was 15 µM, the GI50 [30] was “inactive” and the MIC [31] was greater than 64 µg/mL. For the same molecule, the MIC [32] was 64 µg/mL (≈ 340 µM), the MFC [33] was 64 µg/mL (≈ 340 µM) and the MIC [34] was 64 µg/mL (≈ 340 µM). It also gave an MIC [35] of 12.5 µg, an MIC [36] greater than 100 µg and an MIC [37] of 64 µg/mL (≈ 340 µM). For the same molecule, the MIC [38] was 25 µg, the MIC [39] was 16 µg/mL (≈ 85 µM) and the GI50 [40] was 1.4 µg/mL (≈ 7.44 µM). It also gave an MIC [41] of 3.12 µg.
